Experimental data: patent publication US9296703B2, “Substituted N-(3-(pyrimidin-4-yl)phenyl)acrylamide analogs as tyrosine receptor kinase BTK inhibitors” (University of Utah Research Foundation, priority 2012, dated 2016)

Target: recombinant full-length human BTK kinase (Homo sapiens (Human), UniProt Q06187)
Test: BTK kinase assay: ADP generation assay (ADP-Glo)
Assay type: biochemical
Conditions: 60 nM BTK, 1.6 μM ATP, 20 μM MBP substrate, 60 min at room temperature
Procedure: The primary assay for compound inhibitory activity was the ADP generation assay described herein. Test compounds were diluted to desired concentrations in kinase reaction buffer and briefly incubated with recombinant full-length human BTK kinase with a (His)6 tag (81.3 kDa; Invitrogen Corporation, Carlsbad, Calif.). The assay as described is based on volumes used in a standard 384 well format using solid, white-wall plates. The reaction was subsequently initiated by the addition of ATP and myelin basic protein (MBP) substrate (Millipore Corporation, Waltham, Mass.). Composition of the assay reaction mixture ([…]) was: 5% v/v DMSO, 60 nM BTK, 1.6 μM ATP, and 20 μM MBP substrate. […] Luminescence was measured on an EnVision® microplate reader (PerkinElmer). The amount of luminescence from each reaction is directly correlated with BTK kinase activity. Percent inhibition and IC50 values were calculated by comparing enzyme activity in drug-treated wells to the appropriate controls.
IC50 values are determined using GraphPad Prism 5 software. […]
Activity (IC50) was determined in the BTK assays describe herein above, i.e. either the ADP generation assay and/or the time-resolved FRET assay, and the data are shown in Table III. […]

Chain of recombinant full-length human BTK kinase (Q06187 whole entry): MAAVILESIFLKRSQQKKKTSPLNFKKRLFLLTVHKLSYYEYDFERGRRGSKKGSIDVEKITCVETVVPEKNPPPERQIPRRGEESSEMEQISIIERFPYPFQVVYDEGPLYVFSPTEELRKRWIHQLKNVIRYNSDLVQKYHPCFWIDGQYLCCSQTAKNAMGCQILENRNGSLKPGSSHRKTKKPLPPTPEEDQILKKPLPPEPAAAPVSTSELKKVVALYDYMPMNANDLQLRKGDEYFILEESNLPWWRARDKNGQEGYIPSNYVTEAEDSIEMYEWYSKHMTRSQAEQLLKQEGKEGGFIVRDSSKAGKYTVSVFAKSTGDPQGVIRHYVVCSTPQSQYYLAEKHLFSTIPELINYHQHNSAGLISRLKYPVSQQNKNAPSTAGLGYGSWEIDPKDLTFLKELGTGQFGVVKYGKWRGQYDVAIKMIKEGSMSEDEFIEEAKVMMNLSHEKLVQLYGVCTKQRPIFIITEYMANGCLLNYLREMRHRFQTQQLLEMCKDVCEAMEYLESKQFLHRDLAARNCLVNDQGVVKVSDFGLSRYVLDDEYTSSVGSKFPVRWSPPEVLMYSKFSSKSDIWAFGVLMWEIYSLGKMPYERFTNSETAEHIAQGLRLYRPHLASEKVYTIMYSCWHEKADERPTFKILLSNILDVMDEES

Structure (SMILES)	IC50 [µM]
C=CC(=O)Nc1cccc(-c2nc(Nc3ccc(N4CCOCC4)c(O)c3)ncc2Cl)c1 [Compound 1, N-(3-(5-chloro-2-((3-hydroxy-4-morpholinophenyl)amino)pyrimidin-4-yl)phenyl)acrylamide]	0.004
C=CC(=O)Nc1cccc(-c2nc(Nc3ccc(N4CCOCC4)c(OP(=O)(OC(C)C)OC(C)C)c3)ncc2Cl)c1 [Compound 2, 5-((4-(3-acrylamidophenyl)-5-chloropyrimidin-2-yl)amino)-2 - morpholinophenyl diisopropyl phosphate]	3.58
